ChEMBL document CHEMBL6127119 (J Med Chem, 2024)
In brackets after ≈: the same amount, converted by molar mass. Activity calls are given as the source filed them. No cut-off for these calls is given here.

Tests used:
Peptidoglycan [1] = experiment: Potency index, ratio of vancomycin Ka to test compound Ka for Ac-Lys(D-isoAsp)-D-Ala-D-Ala lipid II model peptide moiety assessed as association constant by ITC analysis
Staphylococcus aureus [2] = experiment: Post-antibiotic effect in Staphylococcus aureus MRSA252 assessed as time of effect at 20 times; type: functional
Staphylococcus aureus [3] = experiment: Induction of membrane disruption in Staphylococcus aureus MRSA252 assessed as leakage of protoplasm content at 1 to 8 ug/ml incubated for 4 to 24 hrs by SEM analysis; type: functional, organism-based; details: dose 1-8 µg/ml, time 4-24 hrs
Escherichia coli [4] = experiment: Bactericidal activity against Escherichia coli AB1157 assessed as reduction in bacterial count at MIC measured after 24 hrs by time kill assay; type: functional
[5] = Toxicity in BALB/c mouse infected with methicillin-resistant Staphylococcus aureus MRSA252 assessed as survival rate at 10 to 20 mg/kg, iv for 7 days; type: organism-based; details: in vivo, 168 h, dose 10-20 mg/kg, time 7 day
Staphylococcus aureus [6] = experiment: Antibacterial activity against Staphylococcus aureus Mu50 at 1:1 ratio of compound and FPP at […] incubated for 16 to 24 hrs by absorbance based assay; type: functional, organism-based; details: dose 128.0 µg/ml, time 16-24 hrs
Peptidoglycan [7] = experiment: Potency index, ratio of vancomycin Ka to test compound Ka for Ac-Lys(Gly5)-D-Ala-D-Ala lipid II model peptide moiety
Staphylococcus aureus [8] = experiment: Post-antibiotic effect in Staphylococcus aureus MRSA252 assessed as time of effect at 10 times; type: functional
Enterococcus faecium [9] = experiment: Antibacterial activity against vancomycin-resistant Enterococcus faecium harboring VanB phenotype incubated for 16 to 24 hrs by CLSI based broth microdilution method; type: functional; details: time 16-24 hrs
[10] = MRT (infinity) in CD-1 mouse at 10 mg/kg, iv measured for 24 hrs by UPLC analysis; type: ADME, organism-based; details: in vivo
Staphylococcus aureus [11] = experiment: Induction of cytoplasmic membrane depolarization in methicillin-resistant Staphylococcus aureus MRSA252 by DiSC3(5) staining based analysis; type: functional, organism-based
Staphylococcus aureus [12] = experiment: Bacteriostatic activity against methicillin-resistant Staphylococcus aureus MRSA252 at MIC measured after 24 hrs by time kill assay; type: functional, organism-based
Escherichia coli [13] = experiment: Inhibition of peptidoglycan biosynthesis in Escherichia coli AB1157 assessed as increase in accumulation of Park's nucleotide at 16 ug/ml incubated for 2 hrs by RP-HPLC analysis; type: functional, organism-based; details: dose 16.0 µg/ml
[14] = Hemolytic activity in rat RBC upto 100 ug/ml incubated for 1 hr by absorbance based assay; type: toxicity, cell-based; details: erythrocyte, dose < 100 µg/ml
Escherichia coli [15] = experiment: Potency index, ratio of Norvancomycin MIC to test compound MIC for Escherichia coli […] incubated for 16 to 24 hrs by CLSI based broth microdilution method; type: functional; details: time 16-24 hrs
Enterococcus faecium [16] = experiment: Antibacterial activity against vancomycin-resistant Enterococcus faecium harboring VanM phenotype incubated for 16 to 24 hrs by CLSI based broth microdilution method; type: functional; details: time 16-24 hrs
Escherichia coli [17] = experiment: Induction of cytoplasmic membrane depolarization in Escherichia coli AB1157 at 5 uM by DiSC3(5) staining based analysis; type: functional, organism-based
[18] = Half life in CD-1 mouse at 10 mg/kg, iv measured for 24 hrs by UPLC analysis; type: ADME, organism-based; details: in vivo
Enterococcus faecalis = experiment: Induction of cytoplasmic membrane depolarization in Enterococcus faecalis ATCC29212 by DiSC3(5) staining based analysis; type: functional, organism-based
[19] = system: Staphylococcus haemolyticus; experiment: Antibacterial activity against methicillin-resistant Staphylococcus haemolyticus clinical isolate incubated for 16 to 24 hrs by CLSI based broth microdilution method; type: functional; details: time 16-24 hrs
[20] = Volume of distribution at steady state in CD-1 mouse at 10 mg/kg, iv measured for 24 hrs by UPLC analysis; type: ADME, organism-based; details: in vivo, read-out: Vdss
Pseudomonas aeruginosa = experiment: Antibacterial activity against Pseudomonas aeruginosa PAO1 incubated for 16 to 24 hrs by CLSI based broth microdilution method; type: functional; details: time 16-24 hrs
Peptidoglycan [21] = experiment: Potency index, ratio of vancomycin Ka to test compound Ka for Ac-Lys(D-isoAsp)-D-Ala-D-Ala lipid II model peptide moiety
Peptidoglycan [22] = experiment: Binding affinity to Ac-Lys(Gly5)-D-Ala-D-Ala lipid II model peptide moiety assessed as association constant by ITC analysis
Acinetobacter baumannii = experiment: Potency index, ratio of Norvancomycin MIC to test compound MIC for Carbapenem-resistant Acinetobacter baumannii clinical isolate incubated for 16 to 24 hrs by CLSI based broth microdilution method; type: functional; details: time 16-24 hrs
Staphylococcus aureus [23] = experiment: Bactericidal activity against methicillin-resistant Staphylococcus aureus MRSA252 assessed as reduction in bacterial count at 4 to 8 times MIC measured after 24 hrs by time kill assay; type: functional
Enterococcus faecium [24] = experiment: Antibacterial activity against Enterococcus faecium clinical isolate incubated for 16 to 24 hrs by CLSI based broth microdilution method; type: functional; details: time 16-24 hrs

For `CC(C)C[C@@H](N)C(=O)N[C@H]1C(=O)N[C@@H](CC(N)=O)C(=O)N[C@H]2C(=O)N[C@H]3C(=O)N[C@H](C(=O)N[C@H](C(=O)NCc4ccc(-c5ccc(CNC(=N)N)cc5)cc4)c4cc(O)cc(O)c4-c4cc3ccc4O)[C@H](O)c3ccc(c(Cl)c3)Oc3cc2cc(c3O[C@@H]2O[C@H](CO)[C@@H](O)[C@H](O)[C@H]2O[C@H]2C[C@](C)(N)[C@H](O)[C@H](C)O2)Oc2ccc(cc2Cl)[C@H]1O`, the Ratio (Peptidoglycan [1]) was 17.3, the Time (Staphylococcus aureus [2]) was 23 h and the Activity (Staphylococcus aureus [3]) was “Active”. For the same compound, the Activity (Escherichia coli [4]) was 1 log10CFU/ml, the Activity [5] was 100% and the Activity (Staphylococcus aureus [6]) was “Active”. For the same compound, the Ratio (Peptidoglycan [7]) was 1.7, the Time (Staphylococcus aureus [8]) was 6 h and the MIC (Enterococcus faecium [9]) was 2 mg/L (≈ 1.2 µM). For the same compound, the MRT inf [10] was 20.2 h, the Activity (Staphylococcus aureus [11]) was “inactive” and the Activity (Staphylococcus aureus [12]) was “Active”. The Activity (Escherichia coli [13]) was “Active”, the Activity [14] was “Non-Toxic” and the Ratio (Escherichia coli [15]) was 2. For the same compound, the MIC (Enterococcus faecium [16]) was 4 mg/L (≈ 2.39 µM), the Activity (Escherichia coli [17]) was “inactive” and the half-life [18] was 13.4 h. The Activity (Enterococcus faecalis) was “Active”, the MIC [19] was no more than 0.03 mg/L and the Vd [20] was 5.12 L/kg. For the same compound, the MIC (Pseudomonas aeruginosa) was greater than 128 mg/L, the Ratio (Peptidoglycan [21]) was 2.7 and the Ka (Peptidoglycan [22]) was 2.32e+06 M⁻¹. It also gave a Ratio (Acinetobacter baumannii) of 2, an Activity (Staphylococcus aureus [23]) of roughly 1 log10CFU/ml and an MIC (Enterococcus faecium [24]) of no more than 0.03 mg/L.
